Reference: patent US20240376109A1, “PYRAZOLO[1,5-A]PYRIMIDINE COMPOUND FOR THE TREATMENT OF DERMAL DISORDERS” (OTSUKA PHARMACEUTICAL CO., LTD., priority 2021, published 2024)

target: T1, PAR2 (Homo sapiens, UniProt P55085); assay: Intracellular calcium concentration measurement (SLIGKV-NH2-induced calcium change, Fluo-8, FDSS/μCELL); type: cell-based; conditions: HEK293 cells; SLIGKV-NH2 10 μM-induced intracellular calcium change; read-out: IC50
T1 construct: HEK293 cell lines derived from human embryonic kidney cultured in a MEM culture medium; endogenous in cells; host or cells: HEK293
T1 sequence (P55085 26-397): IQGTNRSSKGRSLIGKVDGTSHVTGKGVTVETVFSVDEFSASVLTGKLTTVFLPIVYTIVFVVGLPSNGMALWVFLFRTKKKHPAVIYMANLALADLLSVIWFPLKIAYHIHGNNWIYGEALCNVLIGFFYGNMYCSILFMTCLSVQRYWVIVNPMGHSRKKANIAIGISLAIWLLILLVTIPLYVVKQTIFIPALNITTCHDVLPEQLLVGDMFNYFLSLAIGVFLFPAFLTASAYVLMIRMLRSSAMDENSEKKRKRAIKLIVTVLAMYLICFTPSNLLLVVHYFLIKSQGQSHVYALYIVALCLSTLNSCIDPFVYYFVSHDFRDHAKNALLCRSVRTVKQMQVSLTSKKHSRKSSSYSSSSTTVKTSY

Row | IC50 [nM] | SMILES
1 | 60 | CC(C)(C)c1cc(CC2CCCCC2)nc2cc(C(=O)N3CCCCCC3)nn12 [Example 28, azepan-1-yl-[7-tert-butyl-5-(cyclohexylmethyl)pyrazolo[1,5-a]pyrimidin-2-yl]methanone]
2 | 270 | CC(C)c1cc(CC2(C)CCCCC2)nc2cc(C(=O)N3CCCCCC3)nn12 [Example 98]
3 | 20 | CC(C)c1cc(C23CC4CC(CC(C4)C2)C3)nc2cc(C(=O)N3CCCC(O)C3(C)C)nn12 (stereo not shown) [Example 97]
4 | 225 | CCCN(CC)c1cc(CC2CCCCC2)nc2cc(C(=O)N3CCCCCC3)nn12 [Example 131]
5 | 138 | O=C(c1cc2nc(CC3CCCCC3)cc(C(F)(F)F)n2n1)N1CCCCCCCC1 [Example 27]
6 | 229 | CC1CCCN(C(=O)c2cc3nc(CC4CCCC4)cc(C(C)C)n3n2)CC1 (stereo not shown) [Example 127]
7 | 113 | CC1(C)CCCCN1C(=O)c1cc2nc(C3C4CC5CC(C4)CC3C5)cc(C(F)(F)F)n2n1 (stereo not shown) [Example 112]
8 | 207 | CC(C)c1cc(CC2CCCCC2)nc2cc(C(=O)N3CC=CCCC3)nn12 [Example 126]
9 | 298 | CC1CCC(Cc2cc(C(C)C)n3nc(C(=O)N4CCCCCC4)cc3n2)CC1 (stereo not shown) [Example 21]
10 | 304 | CCC(C)c1cc(CC2CCCC2)nc2cc(C(=O)N3CCCCC3)nn12 (stereo not shown) [Example 141]
11 | 297 | CCC(CC)c1cc(CC2CCCCCC2)nc2cc(C(=O)N3CCCCC3(C)C)nn12 [Example 130]
12 | 247 | CCC(C)c1cc(CC2CCCC2)nc2cc(C(=O)N3CCCCCCC3)nn12 (stereo not shown) [Example 78]
13 | 185 | CC(C)(C)c1cc(C2CCCCC2)nc2cc(C(=O)N3CCCCCC3)nn12 [Example 43]
14 | 72 | CCC1CCC(Cc2cc(C(C)C)n3nc(C(=O)N4CCCCC4)cc3n2)CC1 (stereo not shown) [Example 138]
15 | 151 | CCC(C)c1cc(CC2CCCCC2)nc2cc(C(=O)N3CCSCC3)nn12 (stereo not shown) [Example 128]
16 | 250 | CC1(C)C(O)CCCN1C(=O)c1cc2nc(C3CCCCC3)cc(C(F)(F)F)n2n1 (stereo not shown) [Example 111]
17 | 283 | O=C(c1cc2nc(C3CCC(F)(F)CC3)cc(C(F)(F)F)n2n1)N1CCCCCC1 [Example 56]
18 | 146 | CCC(C)c1cc(CC2CCCCC2)nc2cc(C(=O)N3CCCCCC3)nn12 (stereo not shown) [Example 47]
19 | 81 | CC1(C)CCCCN1C(=O)c1cc2nc(CC3CCCCC3)cc(C(F)(F)F)n2n1 [Example 31]
20 | 236 | CC(C)c1cc(C(C)C2CCCCC2)nc2cc(C(=O)N3CCCCCC3)nn12 (stereo not shown) [Example 93]
21 | 40 | COC1CCN(C(=O)c2cc3nc(CC4CCCCC4)cc(C(C)C)n3n2)C(C)(C)C1 (stereo not shown) [Example 42]
22 | 282 | CC(C)c1cc(CC2CCC(F)CC2)nc2cc(C(=O)N3CCCCCC3)nn12 (stereo not shown) [Example 153]
23 | 107 | CC(C)c1cc(CC2CCCCC2)nc2cc(C(=O)N3CCCCCCC3)nn12 [Example 52]
24 | 369 | O=C(c1cc2nc(CC3CCCCC3)cc(C3CC3)n2n1)N1CCCCCC1 [Example 36]
25 | 338 | CC(C)c1cc(COC2CCCC2)nc2cc(C(=O)N3CCCCC3(C)C)nn12 [Example 86]

Row | IC50 [nM] | SMILES
26 | 130 | CCc1cc(CC2CCCCC2)nc2cc(C(=O)N3CCCCC3(C)C)nn12 [Example 35]
27 | 452 | CCc1cc(C2CCCCCC2)nc2cc(C(=O)N3CCCCCC3)nn12 [Example 136]
28 | 51 | CCC(CC)c1cc(CC2CCCC2)nc2cc(C(=O)N3CCCCCC3)nn12 [Example 33]
29 | 37 | CC1(C)CC(O)CCN1C(=O)c1cc2nc(C34CC5CC(CC(C5)C3)C4)cc(C(F)(F)F)n2n1 (stereo not shown) [Example 102]
30 | 91 | CCC(C)c1cc(CC2CCCCC2)nc2cc(C(=O)N3CCCCCCC3)nn12 (stereo not shown) [Example 143]
31 | 137 | CC(C)c1cc(C23CC4CC(CC(C4)C2)C3)nc2cc(C(=O)N3CCCCCC3)nn12 [Example 22]
32 | 46 | CCC(CC)c1cc(CC2CCCC2)nc2cc(C(=O)N3CCCC(O)C3(C)C)nn12 (stereo not shown) [Example 104]
33 | 103 | CC(C)c1cc(CC2CCC(C(F)(F)F)CC2)nc2cc(C(=O)N3CCCCCC3)nn12 (stereo not shown) [Example 156]
34 | 147 | CC(C)c1cc(CC2CC3(CCC3)C2)nc2cc(C(=O)N3CCCCCC3)nn12 [Example 160]
35 | 467 | O=C(c1cc2nc(CC3CCCCC3)cc(C3CCCC3)n2n1)N1CCCCCC1 [Example 29]
36 | 208 | CCCCCc1cc(CC2CCCCC2)nc2cc(C(=O)N3CCCCCC3)nn12 [Example 44]
37 | 265 | CC(C)c1cc(C2CCCCC2)nc2cc(C(=O)N3CCCCCC3)nn12 [Example 34]
38 | 119 | CC(C)c1cc(CC2CCCCCC2)nc2cc(C(=O)N3CCCCC3(C)C)nn12 [Example 49]
39 | 30 | CC(C)(C)c1cc(C23CC4CC(CC(C4)C2)C3)nc2cc(C(=O)N3CCCCCC3)nn12 [Example 23]
40 | 89 | CCC(C)c1cc(CC2CCCC2)nc2cc(C(=O)N3CCCCC3(C)C)nn12 (stereo not shown) [Example 75]
41 | 180 | CC(C)(C)c1cc(CC2CCCC2)nc2cc(C(=O)N3CCCCCCC3)nn12 [Example 150]
42 | 63 | CC(C)c1cc(CC2CCCC2)nc2cc(C(=O)N3CCCC(=O)C3(C)C)nn12 [Example 103]
43 | 386 | CC(C)c1cc(CCC2CCCCC2)nc2cc(C(=O)N3CCSCC3(C)C)nn12 [Example 74]
44 | 105 | CCC(CC)c1cc(CC2CCCCC2)nc2cc(C(=O)N3CCCCCC3)nn12 [Example 48]
45 | 304 | CC1(C)CCCCN1C(=O)c1cc2nc(C3CCCC3)cc(C(F)(F)F)n2n1 [Example 162]
46 | 252 | CCc1cc(CC2CCCC2)nc2cc(C(=O)N3CCCCCCC3)nn12 [Example 145]
47 | 70 | CC(C)(C)c1cc(C23CC4CC(CC(C4)C2)C3)nc2cc(C(=O)N3CCNCC3(C)C)nn12 [Example 101]
48 | 145 | CCC(CC)c1cc(CC2CCCC2)nc2cc(C(=O)N3CCCCCCC3)nn12 [Example 79]
49 | 99 | CC(C)c1cc(CC2CCCCCC2)nc2cc(C(=O)N3CCCCCC3)nn12 [Example 46]
50 | 233 | COCCN1CCN(C(=O)c2cc3nc(CC4CCCCC4)cc(C(C)C)n3n2)C(C)(C)C1 [Example 116, [5-(cyclohexylmethyl)-7-propan-2-ylpyrazolo[1,5-a]pyrimidin-2-yl]-[4-(2-methoxyethyl)-2,2-dimethylpiperazin-1-yl]methanone]

Row | IC50 [nM] | SMILES
51 | 250 | CC(C)c1cc(CC2CCCC2)nc2cc(C(=O)N3CCC=CCC3)nn12 [Example 80]
52 | 52 | CC1(C)COCCN1C(=O)c1cc2nc(C34CC5CC(CC(C5)C3)C4)cc(C(F)(F)F)n2n1 [Example 62]
53 | 135 | CC(C)c1cc(CC2CCCC2)nc2cc(C(=O)N3CC=CCCC3)nn12 [Example 123]
54 | 296 | CC(C)(C)c1cc(CC2CCCCC2)nc2cc(C(=O)N3CCCCC3(C)C)nn12 [Example 161]
55 | 236 | O=C(c1cc2nc(CC3CCCCC3)cc(C3CCCCCC3)n2n1)N1CCCCCC1 [Example 115]
56 | 144 | CCc1cc(CC2CCCCCC2)nc2cc(C(=O)N3CCCCCC3)nn12 [Example 148]
57 | 132 | CC(C)c1cc(CC2CCC(C)(C)CC2)nc2cc(C(=O)N3CCCCCC3)nn12 [Example 152]
58 | 246 | CC(C)c1cc(CC2CCCCC2)nc2cc(C(=O)N3CCC=CCC3)nn12 [Example 81]
59 | 336 | Cc1cc(CC2CCCCC2)nc2cc(C(=O)N3CCCCC3(C)C)nn12 [Example 99]
60 | 185 | CC(C)c1cc(CC2CCCCC2)nc2cc(C(=O)N3CCC(C)(C)C(=O)C3(C)C)nn12 [Example 119]
61 | 298 | CC(C)c1cc(CC2CCCCC2)nc2cc(C(=O)N3CCC(C)(C)C(O)C3(C)C)nn12 (stereo not shown) [Example 120]
62 | 253 | CC(C)c1cc(CC2CCCCC2)nc2cc(C(=O)N3CCC(O)CC3(C)C)nn12 (stereo not shown) [Example 118]
63 | 47 | CC(C)c1cc(CC2CC3CCC2C3)nc2cc(C(=O)N3CCCCCC3)nn12 (stereo not shown) [Example 154]
64 | 245 | CCc1cc(C2CCCCC2)nc2cc(C(=O)N3CCCCC3(C)C)nn12 [Example 121]
65 | 67 | CC(C)c1cc(CC2CCCCC2)nc2cc(C(=O)N3CCCC(C)(O)C3(C)C)nn12 (stereo not shown) [Example 107]
66 | 234 | COC1CCN(C(=O)c2cc3nc(CC4CCCC4)cc(C(C)C)n3n2)C(C)(C)C1 (stereo not shown) [Example 114]
67 | 95 | CCC1CCC(Cc2cc(C(C)C)n3nc(C(=O)N4CCCCCC4)cc3n2)CC1 (stereo not shown) [Example 139]
68 | 64 | CC(C)c1cc(CC2CCCCC2)nc2cc(C(=O)N3CCCCC3(C)C)nn12 [Example 39]
69 | 49 | O=C(c1cc2nc(CC3CCCCC3)cc(C(F)(F)F)n2n1)N1CCCCCCC1 [Example 25]
70 | 464 | CCCCC1CCC(c2cc(C(F)(F)F)n3nc(C(=O)N4CCCCCC4)cc3n2)CC1 (stereo not shown) [Example 58]
71 | 382 | O=C(c1cc2nc(CC3CCCC3)cc(C3CCCCC3)n2n1)N1CCCCCC1 [Example 134]
72 | 17 | CC(C)c1cc(C23CC4CC(CC(C4)C2)C3)nc2cc(C(=O)N3CCC(O)CC3(C)C)nn12 (stereo not shown) [Example 64]
73 | 174 | CC1(C)CSCCN1C(=O)c1cc2nc(C3CCCC3)cc(C(F)(F)F)n2n1 [Example 67]

Row | SMILES | IC50 [nM]
74 | CCCCCCc1cc(CC2CCCCC2)nc2cc(C(=O)N3CCCCCC3)nn12 [Example 69] | 286

same assay, conditions: IC50 (nM)

Row | SMILES | IC50 [nM]
75 | CC(C)c1cc(CC2CCC3CCCCC3C2)nc2cc(C(=O)N3CCCCCC3)nn12 (stereo not shown) [Example 155] | 218
76 | CCCN(CCC)c1cc(CC2CCCCC2)nc2cc(C(=O)N3CCCCCC3)nn12 [Example 89, azepan-1-yl-[5-(cyclohexylmethyl)-7-(dipropylamino)pyrazolo[1,5-a]pyrimidin-2-yl]methanone] | 243
